Results: ChEMBL document CHEMBL4507319 (2021)

Key:
Details in all cases: Compound concentration 1.0 uM
[1] = target: T1, G protein-coupled receptor kinase 3 (Homo sapiens) (UniProt P35626); assay: GRK3(h) Eurofins kinase panel
T1 sequence (whole entry): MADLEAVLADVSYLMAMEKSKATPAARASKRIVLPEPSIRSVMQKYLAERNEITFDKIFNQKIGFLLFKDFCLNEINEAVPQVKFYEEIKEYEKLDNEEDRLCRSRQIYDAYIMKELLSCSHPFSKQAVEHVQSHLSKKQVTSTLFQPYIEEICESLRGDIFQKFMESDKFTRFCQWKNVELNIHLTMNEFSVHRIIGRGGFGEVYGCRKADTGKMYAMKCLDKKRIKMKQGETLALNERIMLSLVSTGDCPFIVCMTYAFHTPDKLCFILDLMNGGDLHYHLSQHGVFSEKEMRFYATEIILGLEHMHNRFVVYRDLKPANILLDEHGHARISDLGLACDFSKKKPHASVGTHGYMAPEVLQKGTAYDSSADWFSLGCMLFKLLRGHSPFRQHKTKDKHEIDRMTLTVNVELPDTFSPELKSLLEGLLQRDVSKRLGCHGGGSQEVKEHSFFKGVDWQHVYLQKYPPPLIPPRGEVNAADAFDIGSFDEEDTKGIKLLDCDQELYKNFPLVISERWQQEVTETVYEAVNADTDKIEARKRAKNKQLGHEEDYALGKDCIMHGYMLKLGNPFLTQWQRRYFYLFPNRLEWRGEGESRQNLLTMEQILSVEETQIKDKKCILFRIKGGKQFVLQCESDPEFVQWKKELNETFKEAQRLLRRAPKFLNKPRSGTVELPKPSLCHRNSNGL

[2] = target: Calcium/calmodulin-dependent protein kinase type 1G (Homo sapiens) (UniProt Q96NX5); assay: CaMKIgamma(h) Eurofins kinase panel
Sequence of Calcium/calmodulin-dependent protein kinase type 1G (Homo sapiens) (Q96NX5 whole entry): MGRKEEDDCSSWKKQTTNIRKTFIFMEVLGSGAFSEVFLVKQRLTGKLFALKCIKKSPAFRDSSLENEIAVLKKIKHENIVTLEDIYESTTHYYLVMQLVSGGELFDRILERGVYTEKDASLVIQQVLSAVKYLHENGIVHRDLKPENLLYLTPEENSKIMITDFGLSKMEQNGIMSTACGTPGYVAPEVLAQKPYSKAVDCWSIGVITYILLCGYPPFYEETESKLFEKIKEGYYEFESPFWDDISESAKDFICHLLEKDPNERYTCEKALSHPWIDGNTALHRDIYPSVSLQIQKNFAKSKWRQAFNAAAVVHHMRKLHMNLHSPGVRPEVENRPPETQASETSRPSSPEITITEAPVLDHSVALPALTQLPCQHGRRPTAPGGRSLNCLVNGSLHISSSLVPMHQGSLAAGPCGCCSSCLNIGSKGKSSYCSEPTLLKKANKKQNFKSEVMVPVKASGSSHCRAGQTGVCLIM

[3] = target: Serine/threonine-protein kinase mTOR (Homo sapiens) (UniProt P42345); assay: mTOR(h) Eurofins kinase panel
[4] = target: Mitogen-activated protein kinase kinase kinase 20 (Homo sapiens) (UniProt Q9NYL2); assay: ZAK(h) Eurofins kinase panel
Sequence of Mitogen-activated protein kinase kinase kinase 20 (Homo sapiens) (Q9NYL2 2-800 limits assumed): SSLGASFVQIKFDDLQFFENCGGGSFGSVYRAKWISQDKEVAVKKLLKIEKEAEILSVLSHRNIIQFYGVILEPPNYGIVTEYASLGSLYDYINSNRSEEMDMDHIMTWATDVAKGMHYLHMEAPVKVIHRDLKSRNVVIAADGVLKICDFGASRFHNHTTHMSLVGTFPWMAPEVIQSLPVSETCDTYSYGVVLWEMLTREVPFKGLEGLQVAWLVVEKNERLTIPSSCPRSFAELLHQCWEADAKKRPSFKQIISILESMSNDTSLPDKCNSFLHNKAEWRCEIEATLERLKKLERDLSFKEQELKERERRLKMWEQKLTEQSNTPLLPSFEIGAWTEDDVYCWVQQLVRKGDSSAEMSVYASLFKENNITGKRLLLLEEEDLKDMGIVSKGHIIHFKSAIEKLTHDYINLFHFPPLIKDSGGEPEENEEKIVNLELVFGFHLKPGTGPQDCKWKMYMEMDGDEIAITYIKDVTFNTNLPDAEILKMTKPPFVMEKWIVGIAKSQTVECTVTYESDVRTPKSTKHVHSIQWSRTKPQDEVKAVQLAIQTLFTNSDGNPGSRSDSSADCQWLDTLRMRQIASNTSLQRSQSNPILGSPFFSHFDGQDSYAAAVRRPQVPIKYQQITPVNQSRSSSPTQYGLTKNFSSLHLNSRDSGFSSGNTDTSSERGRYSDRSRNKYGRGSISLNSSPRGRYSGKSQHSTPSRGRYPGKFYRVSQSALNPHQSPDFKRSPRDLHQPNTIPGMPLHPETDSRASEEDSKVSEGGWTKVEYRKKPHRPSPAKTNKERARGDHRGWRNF

[5] = target: Serine/threonine-protein kinase MRCK alpha (Homo sapiens) (UniProt Q5VT25); assay: MRCKalpha(h) Eurofins kinase panel
Sequence of Serine/threonine-protein kinase MRCK alpha (Homo sapiens) (Q5VT25 whole entry): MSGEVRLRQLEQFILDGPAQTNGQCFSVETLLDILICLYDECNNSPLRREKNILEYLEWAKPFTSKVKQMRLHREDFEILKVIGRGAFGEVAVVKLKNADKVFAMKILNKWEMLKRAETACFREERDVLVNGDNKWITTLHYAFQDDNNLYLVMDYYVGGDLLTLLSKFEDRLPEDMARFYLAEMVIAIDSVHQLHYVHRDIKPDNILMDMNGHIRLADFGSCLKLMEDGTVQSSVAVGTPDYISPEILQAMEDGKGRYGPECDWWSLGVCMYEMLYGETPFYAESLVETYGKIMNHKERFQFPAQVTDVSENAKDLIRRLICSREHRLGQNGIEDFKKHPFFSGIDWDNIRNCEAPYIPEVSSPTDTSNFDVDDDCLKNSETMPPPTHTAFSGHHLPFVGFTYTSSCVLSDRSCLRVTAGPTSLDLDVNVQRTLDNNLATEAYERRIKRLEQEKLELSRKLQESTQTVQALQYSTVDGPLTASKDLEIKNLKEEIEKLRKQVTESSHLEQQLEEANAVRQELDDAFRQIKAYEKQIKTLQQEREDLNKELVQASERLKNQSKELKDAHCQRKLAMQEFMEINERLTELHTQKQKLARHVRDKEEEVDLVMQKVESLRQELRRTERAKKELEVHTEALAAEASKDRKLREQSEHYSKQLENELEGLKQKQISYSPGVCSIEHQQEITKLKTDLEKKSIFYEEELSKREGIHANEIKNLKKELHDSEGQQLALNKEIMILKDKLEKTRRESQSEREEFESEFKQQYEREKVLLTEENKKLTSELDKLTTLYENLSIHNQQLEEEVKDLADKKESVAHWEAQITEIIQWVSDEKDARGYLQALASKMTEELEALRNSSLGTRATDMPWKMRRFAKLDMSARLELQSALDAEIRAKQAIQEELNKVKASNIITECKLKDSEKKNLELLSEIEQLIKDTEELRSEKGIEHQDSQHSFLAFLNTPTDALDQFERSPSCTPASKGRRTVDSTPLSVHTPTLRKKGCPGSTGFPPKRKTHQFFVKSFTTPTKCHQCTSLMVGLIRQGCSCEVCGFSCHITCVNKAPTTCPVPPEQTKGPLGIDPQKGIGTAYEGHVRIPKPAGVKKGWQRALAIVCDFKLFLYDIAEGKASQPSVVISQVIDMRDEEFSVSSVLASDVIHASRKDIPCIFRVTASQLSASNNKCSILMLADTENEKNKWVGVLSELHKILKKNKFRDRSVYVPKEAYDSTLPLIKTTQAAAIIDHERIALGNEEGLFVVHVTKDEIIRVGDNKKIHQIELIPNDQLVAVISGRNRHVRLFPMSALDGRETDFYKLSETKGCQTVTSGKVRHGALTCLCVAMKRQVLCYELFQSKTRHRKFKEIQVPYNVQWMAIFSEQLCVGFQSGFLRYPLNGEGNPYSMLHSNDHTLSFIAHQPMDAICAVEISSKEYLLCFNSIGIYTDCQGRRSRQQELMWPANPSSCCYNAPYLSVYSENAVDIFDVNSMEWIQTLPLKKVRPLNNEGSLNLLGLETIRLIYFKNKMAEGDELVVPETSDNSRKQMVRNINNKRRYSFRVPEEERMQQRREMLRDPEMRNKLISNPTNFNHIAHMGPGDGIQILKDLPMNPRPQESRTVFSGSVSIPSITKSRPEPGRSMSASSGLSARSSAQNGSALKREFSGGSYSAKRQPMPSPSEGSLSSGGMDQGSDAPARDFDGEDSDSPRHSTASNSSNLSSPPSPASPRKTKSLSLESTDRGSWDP

[6] = target: T2, Mitogen-activated protein kinase kinase kinase 7 (Homo sapiens) (UniProt O43318); assay: TAK1(h) Eurofins kinase panel
T2 sequence (whole entry): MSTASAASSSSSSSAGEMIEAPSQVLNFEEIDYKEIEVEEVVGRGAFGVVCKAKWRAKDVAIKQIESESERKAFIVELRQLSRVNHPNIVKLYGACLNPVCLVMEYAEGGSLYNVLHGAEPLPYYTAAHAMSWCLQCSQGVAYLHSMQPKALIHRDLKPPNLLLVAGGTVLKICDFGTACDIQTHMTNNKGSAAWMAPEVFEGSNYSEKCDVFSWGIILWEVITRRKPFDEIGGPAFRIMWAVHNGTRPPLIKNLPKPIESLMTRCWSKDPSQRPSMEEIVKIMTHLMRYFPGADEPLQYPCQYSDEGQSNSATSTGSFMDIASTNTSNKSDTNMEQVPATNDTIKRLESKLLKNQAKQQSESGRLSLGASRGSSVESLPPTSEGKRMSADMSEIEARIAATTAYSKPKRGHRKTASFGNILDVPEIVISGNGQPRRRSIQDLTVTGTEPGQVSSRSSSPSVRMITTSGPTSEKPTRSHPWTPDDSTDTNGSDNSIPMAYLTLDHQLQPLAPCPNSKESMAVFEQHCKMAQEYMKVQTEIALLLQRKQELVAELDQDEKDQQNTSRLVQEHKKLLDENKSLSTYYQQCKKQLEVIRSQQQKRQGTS

[7] = target: T3, Serine/threonine-protein kinase ULK2 (Homo sapiens) (UniProt Q8IYT8); assay: ULK2(h) Eurofins kinase panel
T3 sequence (whole entry): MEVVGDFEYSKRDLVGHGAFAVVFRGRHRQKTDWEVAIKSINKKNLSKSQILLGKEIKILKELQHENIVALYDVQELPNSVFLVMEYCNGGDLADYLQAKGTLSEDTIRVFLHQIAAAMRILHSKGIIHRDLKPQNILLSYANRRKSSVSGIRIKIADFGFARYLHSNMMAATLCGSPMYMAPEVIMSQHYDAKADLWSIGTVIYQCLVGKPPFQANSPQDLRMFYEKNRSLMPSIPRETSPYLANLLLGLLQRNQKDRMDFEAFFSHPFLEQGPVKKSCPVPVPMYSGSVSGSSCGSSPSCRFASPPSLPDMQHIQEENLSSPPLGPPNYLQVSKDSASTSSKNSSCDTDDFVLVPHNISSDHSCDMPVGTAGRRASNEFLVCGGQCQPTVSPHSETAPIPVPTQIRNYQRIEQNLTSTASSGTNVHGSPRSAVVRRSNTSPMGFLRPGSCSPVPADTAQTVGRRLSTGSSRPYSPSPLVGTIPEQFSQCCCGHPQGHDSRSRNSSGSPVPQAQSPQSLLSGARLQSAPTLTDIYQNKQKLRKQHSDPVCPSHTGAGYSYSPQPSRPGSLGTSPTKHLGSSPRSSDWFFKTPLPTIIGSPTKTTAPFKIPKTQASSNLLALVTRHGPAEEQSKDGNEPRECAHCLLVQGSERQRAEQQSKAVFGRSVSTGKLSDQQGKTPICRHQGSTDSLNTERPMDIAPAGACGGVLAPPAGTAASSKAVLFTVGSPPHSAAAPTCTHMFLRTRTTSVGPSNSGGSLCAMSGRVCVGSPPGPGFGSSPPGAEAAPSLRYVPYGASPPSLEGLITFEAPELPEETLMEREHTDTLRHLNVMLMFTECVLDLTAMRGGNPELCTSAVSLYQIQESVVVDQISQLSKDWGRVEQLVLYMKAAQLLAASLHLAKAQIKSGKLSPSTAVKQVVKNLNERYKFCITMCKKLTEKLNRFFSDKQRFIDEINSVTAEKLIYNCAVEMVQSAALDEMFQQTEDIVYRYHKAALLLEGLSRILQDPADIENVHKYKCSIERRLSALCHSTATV

[8] = target: T4, Serine/threonine-protein kinase 17B (Homo sapiens) (UniProt O94768); assay: DRAK2(h) Eurofins kinase panel
T4 sequence (whole entry): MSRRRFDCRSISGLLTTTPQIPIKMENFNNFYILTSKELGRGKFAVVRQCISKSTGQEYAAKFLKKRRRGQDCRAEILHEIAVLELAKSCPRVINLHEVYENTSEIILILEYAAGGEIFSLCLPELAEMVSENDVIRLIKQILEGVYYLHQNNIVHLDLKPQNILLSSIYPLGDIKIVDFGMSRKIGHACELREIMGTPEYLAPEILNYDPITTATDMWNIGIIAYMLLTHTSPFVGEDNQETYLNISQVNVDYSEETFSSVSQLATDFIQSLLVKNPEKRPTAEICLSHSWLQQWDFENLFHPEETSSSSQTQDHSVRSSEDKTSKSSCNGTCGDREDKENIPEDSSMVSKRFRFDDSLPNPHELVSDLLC

[9] = target: Calcium/calmodulin-dependent protein kinase type 1D (Homo sapiens) (UniProt Q8IU85); assay: CaMKIdelta(h) Eurofins kinase panel
Sequence of Calcium/calmodulin-dependent protein kinase type 1D (Homo sapiens) (Q8IU85 whole entry, looked up): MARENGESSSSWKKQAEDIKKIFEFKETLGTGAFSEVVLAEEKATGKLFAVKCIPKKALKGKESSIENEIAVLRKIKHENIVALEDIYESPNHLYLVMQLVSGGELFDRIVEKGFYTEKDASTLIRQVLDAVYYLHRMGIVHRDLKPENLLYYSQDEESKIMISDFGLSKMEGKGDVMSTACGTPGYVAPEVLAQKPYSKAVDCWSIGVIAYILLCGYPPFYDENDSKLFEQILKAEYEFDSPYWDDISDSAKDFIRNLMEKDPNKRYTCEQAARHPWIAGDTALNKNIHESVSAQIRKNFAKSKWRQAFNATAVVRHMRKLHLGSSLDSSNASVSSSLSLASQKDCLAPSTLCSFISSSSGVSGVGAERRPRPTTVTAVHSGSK

[10] = target: Ephrin type-A receptor 2 (Homo sapiens) (UniProt P29317); assay: EphA2(h) Eurofins kinase panel
Sequence of Ephrin type-A receptor 2 (Homo sapiens) (P29317 whole entry): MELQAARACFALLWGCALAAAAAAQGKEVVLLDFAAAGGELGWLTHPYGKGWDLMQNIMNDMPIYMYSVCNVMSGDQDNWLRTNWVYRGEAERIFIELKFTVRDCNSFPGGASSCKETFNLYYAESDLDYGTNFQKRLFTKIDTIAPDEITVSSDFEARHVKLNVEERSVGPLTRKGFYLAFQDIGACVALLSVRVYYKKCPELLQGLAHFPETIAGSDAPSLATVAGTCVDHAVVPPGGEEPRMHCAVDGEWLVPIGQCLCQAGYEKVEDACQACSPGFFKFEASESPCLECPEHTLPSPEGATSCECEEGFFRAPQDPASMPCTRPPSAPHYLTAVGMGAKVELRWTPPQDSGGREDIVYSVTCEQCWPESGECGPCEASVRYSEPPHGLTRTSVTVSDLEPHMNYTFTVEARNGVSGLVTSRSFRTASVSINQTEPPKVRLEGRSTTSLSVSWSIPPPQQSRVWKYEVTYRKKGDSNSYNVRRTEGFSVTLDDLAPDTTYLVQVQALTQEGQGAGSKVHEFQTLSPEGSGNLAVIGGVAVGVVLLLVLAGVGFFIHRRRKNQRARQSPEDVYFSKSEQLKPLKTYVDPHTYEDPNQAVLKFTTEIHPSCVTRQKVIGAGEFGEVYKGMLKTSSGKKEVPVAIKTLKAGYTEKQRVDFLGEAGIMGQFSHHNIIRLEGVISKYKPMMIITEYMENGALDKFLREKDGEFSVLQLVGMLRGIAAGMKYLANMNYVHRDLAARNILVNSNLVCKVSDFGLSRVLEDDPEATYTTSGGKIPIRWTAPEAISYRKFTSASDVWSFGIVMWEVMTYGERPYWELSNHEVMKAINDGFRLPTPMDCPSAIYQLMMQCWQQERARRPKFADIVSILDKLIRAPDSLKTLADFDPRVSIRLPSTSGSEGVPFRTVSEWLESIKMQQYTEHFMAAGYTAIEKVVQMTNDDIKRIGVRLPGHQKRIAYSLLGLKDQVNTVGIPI

Measured: % residual kinase activity

CCc1ccccc1C(=O)Nc1n[nH]c2c(C)c(F)c(C3C(C#N)=C(C)N(C)C(C)=C3C#N)cc12 [BAY-3827]
inactive: [1] 106% | [2] 92% | [3] 116% | [4] 99% | [5] 98% | [6] 104% | [7] 84% | [8] 99% | [9] 104% | [10] 88%
